One data set deals with Anas platyrhynchos. Particulars: oral, mortality.
For another data set, the system named is Apis mellifera. Particulars: acute, duration: 48 hours, mortality.
The next data set relates to Colinus virginianus. Conditions: acute; oral; diet; mortality.
For another data set, the system named is Oncorhynchus mykiss. Conditions: acute; duration: 96 hours; mortality.
The next data set concerns Oryctolagus sp. Particulars: developmental; development.
In the next data set the test system is Tagia sp. Particulars: acute; duration: 14 days; mortality.
A further data set deals with Aphidius rhopalosiphi. As to the kind of experiment: LR50; higher = less toxic. Conditions: acute; duration: 48 hours; mortality.
The next data set has as its system Typhlodromus pyri. The data set can be described thus: LR50; higher = less toxic. Conditions: acute; duration: 7 days; mortality.

Values after ≈ are worked out from the molar mass of the structure shown. Values joined by “and” are separate entries in the source; they are usually repeats but may differ in a detail not shown here. Equal values may be shown once.

The term NOAEL denotes the highest tested level that showed no adverse finding. As for `CCc1cc(C)cc(CC)c1-c1c(OC(=O)C(C)(C)C)n2n(c1=O)CCOCC2` [Pinoxaden], the LD50 in the data set on Anas platyrhynchos (acute, unspecified) was > 2250 mg/kg-day; with Apis mellifera (dermal), > 100 µg/piece; with Apis mellifera (oral, unspecified), > 200 µg/piece; in the data set with Rattus norvegicus (acute, oral, mortality), > 5000 mg/kg-day. Moreover, the LC50 with Anas platyrhynchos (short-term, feed) is > 1800 mg/kg-day; in the data set with Colinus virginianus it was > 1570 mg/kg-day; with Oncorhynchus mykiss it was 10.3 µg/mL (≈ 25.7 µM); in the data set with Tagia sp., > 1000 mg/kg. For the same molecule, the NOAEL was 30 mg/kg-day and 10 mg/kg-day in the data set on Oryctolagus sp.; 10 mg/kg-day with Rattus norvegicus (chronic, duration: 2 years, histopathology: nonneoplastic); 250 mg/kg-day with Rattus norvegicus (reproduction developmental, body weight); 500 mg/kg-day in the data set with Rattus norvegicus (reproduction developmental, oral, gavage, no effects). In addition, the LR50 in the data set with Aphidius rhopalosiphi is 6.22 g/ha; in the data set on Typhlodromus pyri, 1.81 g/ha.

Source of the values: EPA's ToxValDB 9.5 (doi:10.2903/j.efsa.2013.3269).
